Assay results published in ChEMBL document CHEMBL5214906, “Novel Antiplasmodial Compounds Leveraged with Multistage Potency against the Parasite Plasmodium falciparum: In Vitro and In Vivo Evaluations and Pharmacokinetic Studies” (J Med Chem, 2021).
Calls of active or inactive are those of the source. The rule behind the calls is not given here.

How the values were obtained:
Plasmodium falciparum [1] = test: Antiplasmodial activity against Plasmodium falciparum 3D7 infected in human red blood cells assessed as inhibition of parasitemia incubated for 48 hrs by giemsa staining based light microscopic analysis; assay type: functional, organism-based, Red blood cell; conditions: 3D7, Erythrocyte
Plasmodium falciparum [2] = test: Resistance index, ratio of IC50 for antiplasmodial activity against chloroquine-resistant Plasmodium falciparum RKL-9 to IC50 for antiplasmodial activity against Plasmodium falciparum 3D7; assay type: functional
Erythrocyte = test: Hemolytic activity against human red blood cells upto 1600 uM incubated for 1 hrs by hemolysis assay; assay type: toxicity, cell-based
[3] = Therapeutic index, ratio of TC50 for cytotoxicity against human HepG2 cells to IC50 for antiplasmodial activity against Plasmodium falciparum 3D7 infected in human red blood cells; assay type: toxicity, cell-based; conditions: read-out: TI
[4] = Cytotoxicity against human HepG2 cells assessed as reduction in cell viability incubated for 48 hrs by MTT assay; assay type: toxicity, cell-based; conditions: read-out: TC50
Plasmodium falciparum [5] = test: Antiplasmodial activity against chloroquine resistant Plasmodium falciparum RKL-9 infected in human erythrocytes assessed as inhibition of parasitemia by SYBR green-I fluorescence based spectrofluorometric analysis; assay type: functional, organism-based; conditions: RKL-9, Erythrocyte
Plasmodium falciparum [6] = test: Induction of mitochondrial membrane loss in Plasmodium falciparum 3D7 assessed as reduction in red-green ratio at IC50 concentration incubated for 3 hrs by JC-1 staining based spectrofluorometric analysis; assay type: functional
Plasmodium falciparum [7] = test: Inhibition of Plasmodium falciparum plasmepsin X […] at 1 uM using DABCYL-G-PSFVEAPVRGG-EDANS as substrate by fluorescence based assay relative to control
Plasmodium falciparum [8] = test: Antiplasmodial activity against Plasmodium falciparum 3D7 infected in human erythrocytes assessed as transition from ring to trophozoite at 1 to 10 uM measured for 56 hrs by giemsa staining based microscopic analysis; assay type: functional, organism-based; conditions: Erythrocyte, dose 1-10 µM
Plasmodium berghei [9] = test: In vivo antimalarial activity against Plasmodium berghei ANKA infected in BALB/c mouse assessed as reduction in parasitemia at 50 mg/kg, ip administered for 4 consecutive days and measured on day 8 post-infection by geimsa staining based microscopic analysis relative to control; assay type: functional; set-up: scale not given: the % may be the effect or the level left; conditions: time 8 day
Plasmodium falciparum [10] = test: Antiplasmodial activity against Plasmodium falciparum 3D7 infected in human erythrocytes assessed as accumulation of parasite growth at late trophozoite stage at 1 to 10 uM measured after 56 hrs post-treatment by giemsa staining based microscopic analysis; assay type: functional, organism-based; conditions: Erythrocyte, dose 1-10 µM
Plasmodium falciparum [11] = test: Antiplasmodial activity against Plasmodium falciparum 3D7 infected in human erythrocytes assessed as pyknotic trophozoites development at 1 to 10 uM measured for 56 hrs by giemsa staining based microscopic analysis; assay type: functional, organism-based; conditions: Erythrocyte, dose 1-10 µM
Plasmodium falciparum [12] = test: Antiplasmodial activity against Plasmodium falciparum 3D7 infected in human erythrocytes assessed as delay in maturation of rings at 1 to 10 uM measured for 56 hrs by giemsa staining based microscopic analysis; assay type: functional, organism-based; conditions: Erythrocyte, dose 1-10 µM
Plasmodium berghei [13] = test: In vivo antimalarial activity against Plasmodium berghei ANKA strain infected in BALB/c mouse assessed as increase in mean survival time at 50 mg/kg, ip administered for 4 days and measured upto 30 days (reference value: 13 days); assay type: functional; conditions: time <= 30 day
[14] = Inhibition of Plasmodium falciparum Plasmepsin X assessed as inhibition constant using DABCYL-G-PSFVEAPVRGG-EDANS as substrate by fluorescence based assay relative to control
Plasmodium berghei [15] = test: In vivo antimalarial activity against Plasmodium berghei ANKA strain infected in C57BL/6 mouse assessed as increase in mean survival time at 30 mg/kg, ip administered for 4 days and measured upto 30 days (reference value: 13 days); assay type: functional; conditions: time <= 30 day
Plasmodium berghei [16] = test: Antiplasmodial activity against firefly luciferase-expressing Plasmodium berghei liver stage infected in human Huh-7 cells assessed as inhibition of parasite growth preincubated with cells for 1 hrs followed by parasite infection and […] by bioluminescence assay; assay type: functional, organism-based

For Cc1cnc(C(=O)N[C@@H](Cc2ccccc2)[C@@H](O)CN2CCN(Cc3ccccc3)CC2)cn1, the IC50 (Plasmodium falciparum [1]) was 1.22 µM, the “Ratio IC50” value (Plasmodium falciparum [2]) was 0.65 and the Activity (Erythrocyte) was “Non-Toxic”. The selectivity ratio [3] was 232, the CC50 at 48 h [4] was 285 µM and the IC50 (Plasmodium falciparum [5]) was 0.79 µM. The Ratio (Plasmodium falciparum [6]) was 4.28 and the inhibition (Plasmodium falciparum [7]) was 8.79%.
With O=C(N[C@@H](Cc1ccccc1)[C@@H](O)CN1CCN(Cc2ccccc2)CC1)c1ccc(N2CCOCC2)cc1 the IC50 (Plasmodium falciparum [1]) was 0.21 µM, the “Ratio IC50” value (Plasmodium falciparum [2]) was 3.93 and the Activity (Erythrocyte) was “Non-Toxic”. For the same compound, the Activity (Plasmodium falciparum [8]) was “Active”, the selectivity ratio [3] was 1450 and the CC50 at 48 h [4] was 317 µM. The Activity (Plasmodium berghei [9]) was 50%, the Activity (Plasmodium falciparum [10]) was “Active” and the IC50 (Plasmodium falciparum [5]) was 0.86 µM. For the same compound, the Activity (Plasmodium falciparum [11]) was “Active”, the Activity (Plasmodium falciparum [12]) was “Active” and the MST (Plasmodium berghei [13]) was 15 days. The Ratio (Plasmodium falciparum [6]) was 3.48 and the inhibition (Plasmodium falciparum [7]) was 28.4%.
Cc1ccc(OCC(=O)N[C@@H](Cc2ccccc2)[C@@H](O)CN2CCN(Cc3ccccc3)CC2)cc1 showed an IC50 (Plasmodium falciparum [1]) of 0.2 µM, a selectivity ratio [3] of 1000 and a CC50 at 48 h [4] of 200 µM. The inhibition (Plasmodium falciparum [7]) was 24.5%.
Compound O=C(Cc1cccc(C(F)(F)F)c1)N[C@@H](Cc1ccccc1)[C@@H](O)CN1CCN(Cc2ccccc2)CC1 has an IC50 (Plasmodium falciparum [1]) of 1.1 µM, a selectivity ratio [3] of 900 and a CC50 at 48 h [4] of 990 µM. It also gave an inhibition (Plasmodium falciparum [7]) of 13.7%.
In the case of O=C(N[C@@H](Cc1ccccc1)[C@@H](O)CN1CCN(Cc2ccccc2)CC1)c1ccc(F)cc1, the IC50 (Plasmodium falciparum [1]) is reported as 0.41 µM, the “Ratio IC50” value (Plasmodium falciparum [2]) is reported as 1.73 and the selectivity ratio [3] is reported as 636. The CC50 at 48 h [4] was 267 µM, the IC50 (Plasmodium falciparum [5]) was 0.72 µM and the Activity (Plasmodium falciparum [11]) was “Active”. For the same compound, the Activity (Plasmodium falciparum [12]) was “Active”, the Ratio (Plasmodium falciparum [6]) was 3.73 and the inhibition (Plasmodium falciparum [7]) was 0.92%.
For O=C(N[C@@H](Cc1ccccc1)[C@@H](O)CN1CCN(Cc2ccccc2)CC1)c1cnc2ccccc2c1, the IC50 (Plasmodium falciparum [1]) was 0.25 µM, the Activity (Erythrocyte) was “Non-Toxic” and the selectivity ratio [3] was 400. It also gave a CC50 at 48 h [4] of 100 µM and an inhibition (Plasmodium falciparum [7]) of 11.7%.
CN1CCN(Cc2ccc(C(=O)N[C@@H](Cc3ccccc3)[C@@H](O)CN3CCN(Cc4ccccc4)CC3)cc2)CC1 gave an IC50 (Plasmodium falciparum [1]) of 0.97 µM, a Ki [14] of 0.91 µM and a selectivity ratio [3] of 887. For the same compound, the CC50 at 48 h [4] was 860 µM and the inhibition (Plasmodium falciparum [7]) was 38.6%.
In the case of C[C@H]1[C@H](OC(=O)CCC(=O)O)O[C@@H]2O[C@@]3(C)CC[C@H]4[C@H](C)CC[C@@H]1[C@@]24OO3 [ARTESUNATE], the MST (Plasmodium berghei [15]) is reported as 24 days.
O=C(Cc1ccccc1)N[C@@H](Cc1ccccc1)[C@@H](O)CN1CCN(Cc2ccccc2)CC1 showed an IC50 (Plasmodium falciparum [1]) greater than 5 µM, a selectivity ratio [3] of less than 61 and a CC50 at 48 h [4] of 305 µM. It also gave an inhibition (Plasmodium falciparum [7]) of 6.85%.
CCC(C(=O)N[C@@H](Cc1ccccc1)[C@@H](O)CN1CCN(Cc2ccccc2)CC1)c1ccccc1 (stereo not given in full) gave an IC50 (Plasmodium falciparum [1]) of 0.95 µM, a selectivity ratio [3] of 1420 and a CC50 at 48 h [4] of 1350 µM. For the same compound, the inhibition (Plasmodium falciparum [7]) was 15.5%.
CN1CCN(c2ccc(C(=O)N[C@@H](Cc3ccccc3)[C@@H](O)CN3CCN(Cc4ccccc4)CC3)cc2)CC1 gave an IC50 (Plasmodium falciparum [1]) of 1 µM, a selectivity ratio [3] of 189 and a CC50 at 48 h [4] of 189 µM. For the same compound, the inhibition (Plasmodium falciparum [7]) was 34%.
In the case of O=C(CCc1ccc(Br)cc1)N[C@@H](Cc1ccccc1)[C@@H](O)CN1CCN(Cc2ccccc2)CC1, the IC50 (Plasmodium falciparum [1]) is reported as 0.51 µM, the selectivity ratio [3] is reported as 252 and the CC50 at 48 h [4] is reported as 129 µM. It also gave an IC50 (Plasmodium berghei [16]) of 3.97 µM and an inhibition (Plasmodium falciparum [7]) of 21.5%.
In the case of O=C(N[C@@H](Cc1ccccc1)[C@@H](O)CN1CCN(Cc2ccccc2)CC1)c1cnccn1, the IC50 (Plasmodium falciparum [1]) is reported as 1.26 µM, the “Ratio IC50” value (Plasmodium falciparum [2]) is reported as 1 and the Activity (Erythrocyte) is reported as “Non-Toxic”. The selectivity ratio [3] was 791, the CC50 at 48 h [4] was 1000 µM and the IC50 (Plasmodium falciparum [5]) was 1.26 µM. It also gave a Ratio (Plasmodium falciparum [6]) of 4.07 and an inhibition (Plasmodium falciparum [7]) of 21%.
